# From ChEMBL document CHEMBL1149346, “Activity of nitrogen-containing and non-nitrogen-containing bisphosphonates on tumor cell lines” (J Med Chem, 2006)
# Key:
# Type in all cases: functional, cell-based
# SF-268 = test: cells; conditions: Homo sapiens
# Description: Antiproliferative activity against human SF-268 cell line by MTT assay
# NCI-H460 = test: Antiproliferative activity against human NCI-H460 cell line by MTT assay
# MCF7 = test: Antiproliferative activity against human MCF7 cell line by MTT assay
# 13762 = test: Antiproliferative activity against rat 13762 cell line
Structure (SMILES),IC50 (SF-268),IC50 (NCI-H460),IC50 (MCF7),IC50 13762
O=P([O-])(O)C(O)(C[n+]1cccc(F)c1)P(=O)(O)O (stereo not drawn),49.3 µM,65.8 µM,58.1 µM,–
O=P([O-])(O)C(O)(C[n+]1cccc(Br)c1)P(=O)(O)O (stereo not drawn),55.7 µM,54.5 µM,33.5 µM,–
O=P([O-])(O)C(C[n+]1ccc(-c2cccc(-c3ccccc3)c2)cc1)P(=O)(O)O (stereo not drawn),> 10000 µM,> 10000 µM,> 10000 µM,–
Cc1ccc2c(ccc[n+]2CC(O)(P(=O)([O-])O)P(=O)(O)O)c1 (stereo not drawn),261 µM,279 µM,260 µM,–
O=P(O)(O)C(Cc1ccc(Br)c(Br)c1)P(=O)(O)O,349 µM,446 µM,533 µM,–
O=P([O-])(O)C(C[n+]1cccc(-c2ccc(-c3ccccc3)cc2)c1)P(=O)(O)O (stereo not drawn),23.2 µM,21.5 µM,25.1 µM,–
O=P([O-])(O)C(O)(C[n+]1cccc(-c2ccc(F)cc2)c1)P(=O)(O)O (stereo not drawn),6.5 µM,5.6 µM,17.3 µM,–
CCCCc1ccc[n+](CC(O)(P(=O)([O-])O)P(=O)(O)O)c1 (stereo not drawn),13.1 µM,14.8 µM,21.4 µM,–
O=P([O-])(O)C(O)(C[n+]1ccc2ccccc2c1)P(=O)(O)O (stereo not drawn),260 µM,297 µM,288 µM,–
O=P([O-])(O)C(C[n+]1cccc(Br)c1)P(=O)(O)O (stereo not drawn),109 µM,92.9 µM,143 µM,–
NCCC(O)(P(=O)(O)O)P(=O)(O)O [PAMIDRONIC ACID],408 µM,71.8 µM,141 µM,33.6 µM
O=P(O)(O)C(O)(Cc1cccnc1)P(=O)(O)O [RISEDRONIC ACID],23.3 µM,43.7 µM,35.7 µM,> 40 µM
CC(C)(C)C(=O)OCOP(=O)(OCOC(=O)C(C)(C)C)C(Cc1cccc(-c2cccc(-c3ccccc3)c2)c1)P(=O)(OCOC(=O)C(C)(C)C)OCOC(=O)C(C)(C)C,2.38 µM,1.64 µM,2.62 µM,–
O=P(O)(O)C(O)(Cc1cccc(-c2cccc(-c3ccccc3)c2)c1)P(=O)(O)O,130 µM,140 µM,152 µM,–
O=P([O-])(O)C(O)(C[n+]1ccc(-c2ccccc2)cc1)P(=O)(O)O (stereo not drawn),290 µM,312 µM,304 µM,–
CCc1ccc[n+](CC(P(=O)([O-])O)P(=O)(O)O)c1 (stereo not drawn),44.8 µM,62 µM,42.6 µM,–

Structure (SMILES),IC50 (SF-268),IC50 (NCI-H460),IC50 (MCF7),IC50 13762
O=P([O-])(O)C(C[n+]1cccc(S(=O)(=O)N2CCCC2)c1)P(=O)(O)O (stereo not drawn),> 10000 µM,> 10000 µM,> 10000 µM,–
O=P(O)(O)C(O)(Cc1ccc(-c2ccccc2-c2ccccc2)cc1)P(=O)(O)O,475 µM,329 µM,1060 µM,–
O=P(O)(O)C(O)(Cc1cccc(-c2ccccc2-c2ccccc2)c1)P(=O)(O)O,58 µM,86.1 µM,92.7 µM,–
CCCCc1ccc[n+](CC(P(=O)([O-])O)P(=O)(O)O)c1 (stereo not drawn),24.1 µM,33 µM,26.5 µM,–
CC(C)(C)C(=O)OCOP(=O)(OCOC(=O)C(C)(C)C)C(Cc1ccc(Cl)c(Cl)c1)P(=O)(OCOC(=O)C(C)(C)C)OCOC(=O)C(C)(C)C,1.43 µM,2.7 µM,0.34 µM,–
O=P([O-])(O)C(O)(C[n+]1ccc(Cc2ccccc2)cc1)P(=O)(O)O (stereo not drawn),111 µM,211 µM,191 µM,–
Cc1ccc[n+](CC(O)(P(=O)([O-])O)P(=O)(O)O)c1 (stereo not drawn),52.6 µM,66.8 µM,98.1 µM,–
CC(C)OC(=O)OCOP(=O)(OCOC(=O)OC(C)C)C(Cc1cccc(C#N)c1)P(=O)(OCOC(=O)OC(C)C)OCOC(=O)OC(C)C,7.77 µM,22.6 µM,58.6 µM,–
O=P([O-])(O)C(C[n+]1ccc(-c2ccccc2-c2ccccc2)cc1)P(=O)(O)O (stereo not drawn),243 µM,284 µM,280 µM,–
O=P([O-])(O)C(C[n+]1ccc2ccccc2c1)P(=O)(O)O (stereo not drawn),> 10000 µM,> 10000 µM,> 10000 µM,–
CC(C)(C)C(=O)OCOP(=O)(OCOC(=O)C(C)(C)C)C(Cc1ccc(Br)c(Br)c1)P(=O)(OCOC(=O)C(C)(C)C)OCOC(=O)C(C)(C)C,0.65 µM,0.62 µM,0.22 µM,–
Cc1ccc[n+](CC(P(=O)([O-])O)P(=O)(O)O)c1 (stereo not drawn),44.6 µM,62 µM,38.1 µM,–
O=P([O-])(O)C(C[n+]1cccc(-c2ccccc2-c2ccccc2)c1)P(=O)(O)O (stereo not drawn),232 µM,208 µM,236 µM,–
CCc1ccc[n+](CC(O)(P(=O)([O-])O)P(=O)(O)O)c1 (stereo not drawn),45.8 µM,71.7 µM,50.7 µM,–
O=P(O)(O)C(CNc1ccncc1)P(=O)(O)O,14.4 µM,12.6 µM,22.7 µM,–
O=P([O-])(O)C(C[n+]1cccc(C(F)(F)F)c1)P(=O)(O)O (stereo not drawn),132 µM,142 µM,129 µM,–
